How the values were obtained:
[1] = tested on: NO production in RAW 264.7 mouse macrophages stimulated by lipopolysaccharide (LPS); assay: Inhibitory assay of NO production (Griess) in LPS-stimulated RAW264.7 cells; type: cell-based; conditions: for IC50 / activity at 1 µM / activity at 3 µM / activity at 10 µM / activity at 30 µM: Mus musculus, RAW264.7, 24 h; for IC50: read-out: IC50 (inhibition of NO production); for activity at 1 µM / activity at 3 µM / activity at 10 µM / activity at 30 µM: read-out: Produced NO %; for NO inhibitory activity (in words): 1–30 μM tested
Procedure: An inhibitory assay of NO production was examined in accordance with a previously reported method with minor modifications. Briefly, RAW264.7 cells (5 × 10^4 cells in 100 μL) were seeded on a 96-well microplate and incubated for 24 h. DMEM-containing test samples (100 μL total volume, final concentration of 30, 10, 3, or 1 μM) dissolved in DMSO (final concentration 0.2%) and LPS (final concentration of 5 μg/mL) was added. After being treated for 24 h, the supernatant of the culture medium was transferred to another 96-well microplate, and 50 μL of 0.15% N-(1-naphtyl)ethylenediamine in H2O and 1.5% sulfanilamide in 7.5% phosphoric acid were then added. After being incubated for 30 min, absorbance in each well was read at 570 nm using a microplate reader. The optical density of vehicle control cells was assumed to be 100%

RAW264.7 cells = assay: RAW264.7 cell proliferation / cell viability (MTT); type: cell-based, mouse; conditions: for Cell Viavility %: 24 h, MTT, vs DMSO (100%), mean ± S.E., n=4; for Cytotoxicity (in words): at higher concentrations
Procedure: RAW264.7 cell proliferation was examined in accordance with a previously reported method. Briefly, RAW264.7 cells (5 × 10^4 cells in 100 μL) were seeded on a 96-well microplate and incubated for 24 h. Dulbecco's modified eagle's medium (DMEM)-containing test samples (100 μL total volume, final concentration of 30, 10, 3, or 1 μM) dissolved in dimethyl sulfoxide (DMSO, final concentration 0.2%) was added. After being treated for 24 h, thiazolyl blue tetrazolium bromide (MTT) solution was added. After a 3-h incubation, 20% sodium dodecyl sulfate in 0.1 M HCl was added to dissolve the formazan produced in the cells. Absorbance in each well was read at 570 nm using a microplate reader. The optical density of vehicle control cells was assumed to be 100%.

Row | Structure (SMILES) | melting point | IC50 [1] | activity at 1 µM [1] | activity at 3 µM [1] | activity at 10 µM [1] | activity at 30 µM [1] | Cell Viavility % (RAW264.7 cells; 1 μM) | Cell Viavility % (RAW264.7 cells; 3 μM) | Cell Viavility % (RAW264.7 cells; 10 μM) | Cell Viavility % (RAW264.7 cells; 30 μM) | NO inhibitory activity (in words) [1] | Cytotoxicity at effective concentration (in words) (RAW264.7 cells; at 1 and 3 μM) | Cytotoxicity (in words) (RAW264.7 cells) | Cytotoxicity at effective concentration (in words) (RAW264.7 cells; at 1–10 μM)
1 | CC(=O)O[C@H]1CC[C@]2(C)[C@H]3CC[C@@]4(C)[C@H]([C@H](C)CCC=C(C)C)CC[C@]4(C)C3=CC(=O)[C@H]2C1(C)C [Compound 3, 3β-acetoxyeupha-7,24-dien-6-one] | 140 to 143 °C | > 30 µM | 101 ± 2.6% | 93.7 ± 1.4% | 93.3 ± 1.6% | 93.1 ± 0.9% | (100.0 ± 1.4) % | (94.6 ± 8.2) % | (104.2 ± 0.7) % | (103.8 ± 1.0) % | – | – | – | –
2 | CO[C@H]1C[C@]2(C)CC[C@]3(C)[C@H](CC[C@@H]4[C@@]5(C)CC[C@H](OC(C)=O)C(C)(C)[C@@H]5CC[C@]43C)[C@@]23O[C@@]13C(C)C [Compound 1, 18β,19β-epoxy-21β-methoxylupan-3β-yl acetate] | – | > 30 µM | 94.8 ± 1.2% | 101.4 ± 0.7% | 90.5 ± 2.4% | 95.7 ± 4.6% | (95.0 ± 0.7) % | (104.2 ± 1.3) % | (102.6 ± 0.7) % | (107.4 ± 2.0) % | – | – | – | –
3 | CC(=O)O[C@H]1CC[C@]2(C)[C@H]3CC[C@@H]4C5=C(C(C)C)C(=O)C[C@]5(C)CC[C@@]4(C)[C@]3(C)CC[C@H]2C1(C)C [Compound 5, 21-oxolup-18-en-3β-yl acetate] | – | > 30 µM | 110 ± 5.2% | 106 ± 3.2% | 94.9 ± 4.3% | 92.7 ± 4.7% | (98.4 ± 3.1) % | (94.8 ± 3.9) % | (90.7 ± 1.8) % | (88.9 ± 2.3) % | – | – | – | –
4 | C=C(C)[C@@H]1CC[C@]2(CO)CC[C@]3(C)[C@H](CC[C@@H]4[C@@]5(C)CC[C@H](O)C(C)(C)[C@@H]5CC[C@]43C)[C@@H]12 [Compound 6, betulin] | – | 17 µM | 83.4 ± 1.5% | 75 ± 3.2% | 65.4 ± 0.5% | 36.3 ± 0.6% | (99.8 ± 0.1) % | (93.7 ± 1.1) % | (76.7 ± 0.7) % | (66.7 ± 1.2) % | exhibited NO inhibitory activities | did not exhibit cytotoxicity | some cytotoxicity | –
5 | CC(=O)O[C@H]1CC[C@]2(C)[C@H]3CC[C@@H]4[C@@]56O[C@]5(C(C)C)[C@@H](O)C[C@]6(C)CC[C@@]4(C)[C@]3(C)CC[C@H]2C1(C)C [Compound 4, 18β,19β-epoxy-21β-hydroxylupan-3β-yl acetate] | – | 16.9 µM | 83.6 ± 0.9% | 76.8 ± 2.5% | 66 ± 0.8% | 35.4 ± 2.2% | (98.4 ± 0.9) % | (97.9 ± 0.3) % | (92.7 ± 1.0) % | (49.5 ± 0.7) % | exhibited NO inhibitory activities | – | some cytotoxicity | did not exhibit cytotoxicity
